As usually defined, the IC50 is the midpoint of a concentration-inhibition curve.

These results are taken from ChEMBL document CHEMBL1909046, “DrugMatrix in vitro pharmacology data”.

Data set [1] concerns the target T1, Neuropeptide Y receptor type 2 (Homo sapiens, UniProt P49146). Also: in other assays of this panel Not Active means under 50% inhibition at 10 µM.
T1 sequence (P49146 whole entry): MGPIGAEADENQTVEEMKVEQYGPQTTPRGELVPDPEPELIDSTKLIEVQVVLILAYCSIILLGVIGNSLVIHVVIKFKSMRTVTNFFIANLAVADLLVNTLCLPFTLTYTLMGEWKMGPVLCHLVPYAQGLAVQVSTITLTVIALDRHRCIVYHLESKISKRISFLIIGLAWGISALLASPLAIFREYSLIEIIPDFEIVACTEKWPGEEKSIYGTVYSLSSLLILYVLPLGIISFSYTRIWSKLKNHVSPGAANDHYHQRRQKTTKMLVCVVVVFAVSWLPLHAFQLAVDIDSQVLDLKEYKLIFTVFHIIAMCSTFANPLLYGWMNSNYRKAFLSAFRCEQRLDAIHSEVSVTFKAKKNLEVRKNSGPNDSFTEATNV
The data set is classed as cell membranes, Membrane. To be noted: kan-ts.

For data set [2], the target named is Voltage-gated inwardly rectifying potassium channel KCNH2 (Homo sapiens, UniProt Q12809). To be noted: hek293. Also: in other assays of this panel Not Active means under 50% inhibition at 10 µM.
The target of data set [3] is Cytochrome P450 2D6 (Homo sapiens, UniProt P10635). The conditions noted are these: bti-tn-5b1-4. Also: in other assays of this panel Not Active means under 50% inhibition at 10 µM.
Data set [4] can be described thus: DRUGMATRIX: Nicotinic Acetylcholine radioligand binding (ligand: [125I] Epibatidine). To be noted: imr-32; Not Active = under 50% inhibition at 10 µM. The data set is classed as cell membranes, Membrane.
Data set [5] has as its target Epidermal growth factor receptor (Homo sapiens, UniProt P00533). The data set can be described thus: DRUGMATRIX: Protein Tyrosine Kinase, EGF Receptor enzyme inhibition (substrate: Poly(Glu:Tyr)). The data set is classed as cell-based, Insect cells. To be noted: insect cells, Not Active = under 50% inhibition at 10 µM.
Data set [6] addresses T2, Thromboxane-A synthase (Homo sapiens, UniProt P24557).
T2 sequence (P24557 whole entry): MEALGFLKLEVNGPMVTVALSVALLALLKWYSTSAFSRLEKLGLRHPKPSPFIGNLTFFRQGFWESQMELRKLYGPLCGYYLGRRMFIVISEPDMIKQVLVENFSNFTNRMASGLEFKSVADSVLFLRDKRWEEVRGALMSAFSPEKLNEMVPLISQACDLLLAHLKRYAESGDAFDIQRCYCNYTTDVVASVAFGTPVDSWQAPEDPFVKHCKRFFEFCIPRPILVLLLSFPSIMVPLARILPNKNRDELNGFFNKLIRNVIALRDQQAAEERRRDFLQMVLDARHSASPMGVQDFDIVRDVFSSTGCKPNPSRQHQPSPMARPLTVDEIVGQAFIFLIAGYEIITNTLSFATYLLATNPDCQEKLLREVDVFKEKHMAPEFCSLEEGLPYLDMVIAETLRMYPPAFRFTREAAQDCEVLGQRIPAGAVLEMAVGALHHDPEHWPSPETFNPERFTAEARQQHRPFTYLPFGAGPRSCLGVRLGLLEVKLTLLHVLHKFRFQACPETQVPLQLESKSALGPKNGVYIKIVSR
The data set can be described thus: biochemical. The format is tissue-based, Platelet. The conditions noted are these: platelet.

The target in data set [7] is T3, Cathepsin G (Homo sapiens, UniProt P08311).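 Also: inhibition of Cathepsin G enzyme activity, tested on an AMC-conjugated peptide substrate; in other assays of this panel Not Active means under 50% inhibition at 10 µM.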
T3 sequence (P08311 whole entry): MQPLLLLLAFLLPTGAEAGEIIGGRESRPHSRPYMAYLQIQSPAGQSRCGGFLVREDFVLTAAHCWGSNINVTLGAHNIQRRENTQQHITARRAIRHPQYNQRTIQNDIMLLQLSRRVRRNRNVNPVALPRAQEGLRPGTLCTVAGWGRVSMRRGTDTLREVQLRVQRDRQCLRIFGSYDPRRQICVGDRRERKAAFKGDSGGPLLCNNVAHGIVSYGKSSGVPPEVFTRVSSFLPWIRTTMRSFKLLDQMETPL
The data set is classed as tissue-based. The conditions noted are these: neutrophil.

The target in data set [8] is Protein kinase C alpha type (Homo sapiens, UniProt P17252). The format is cell-based. To be noted: sf9.

Sequence of Voltage-gated inwardly rectifying potassium channel KCNH2 (Q12809 whole entry): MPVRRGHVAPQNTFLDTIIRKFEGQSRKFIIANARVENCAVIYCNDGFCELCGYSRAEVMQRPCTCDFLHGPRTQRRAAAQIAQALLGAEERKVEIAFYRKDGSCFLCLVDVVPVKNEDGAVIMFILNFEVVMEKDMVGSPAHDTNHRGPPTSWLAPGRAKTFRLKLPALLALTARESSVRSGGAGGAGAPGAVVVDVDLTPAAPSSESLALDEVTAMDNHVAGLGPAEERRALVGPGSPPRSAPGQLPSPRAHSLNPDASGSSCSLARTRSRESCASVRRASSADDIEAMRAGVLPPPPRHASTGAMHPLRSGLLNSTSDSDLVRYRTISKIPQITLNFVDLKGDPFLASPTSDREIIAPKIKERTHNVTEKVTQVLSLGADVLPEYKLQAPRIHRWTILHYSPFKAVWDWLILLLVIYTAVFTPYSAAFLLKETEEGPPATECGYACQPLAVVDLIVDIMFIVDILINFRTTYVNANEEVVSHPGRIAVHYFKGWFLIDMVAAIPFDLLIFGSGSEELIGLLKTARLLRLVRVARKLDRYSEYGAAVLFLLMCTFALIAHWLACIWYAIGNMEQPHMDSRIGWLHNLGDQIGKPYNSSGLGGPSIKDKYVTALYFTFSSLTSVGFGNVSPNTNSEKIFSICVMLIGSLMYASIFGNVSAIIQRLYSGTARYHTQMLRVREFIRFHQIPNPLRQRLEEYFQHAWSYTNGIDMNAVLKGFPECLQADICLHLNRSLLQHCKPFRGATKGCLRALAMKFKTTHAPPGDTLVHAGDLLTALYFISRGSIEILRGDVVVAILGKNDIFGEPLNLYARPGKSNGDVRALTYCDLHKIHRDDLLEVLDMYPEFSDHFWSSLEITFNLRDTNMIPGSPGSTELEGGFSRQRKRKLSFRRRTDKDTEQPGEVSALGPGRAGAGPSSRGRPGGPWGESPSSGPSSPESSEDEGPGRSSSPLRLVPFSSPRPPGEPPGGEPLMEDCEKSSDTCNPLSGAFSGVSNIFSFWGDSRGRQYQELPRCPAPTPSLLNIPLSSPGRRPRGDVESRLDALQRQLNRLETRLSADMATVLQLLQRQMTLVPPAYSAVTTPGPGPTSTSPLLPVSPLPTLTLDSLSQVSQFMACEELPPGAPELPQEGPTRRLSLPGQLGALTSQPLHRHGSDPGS
Sequence of Cytochrome P450 2D6 (P10635 whole entry): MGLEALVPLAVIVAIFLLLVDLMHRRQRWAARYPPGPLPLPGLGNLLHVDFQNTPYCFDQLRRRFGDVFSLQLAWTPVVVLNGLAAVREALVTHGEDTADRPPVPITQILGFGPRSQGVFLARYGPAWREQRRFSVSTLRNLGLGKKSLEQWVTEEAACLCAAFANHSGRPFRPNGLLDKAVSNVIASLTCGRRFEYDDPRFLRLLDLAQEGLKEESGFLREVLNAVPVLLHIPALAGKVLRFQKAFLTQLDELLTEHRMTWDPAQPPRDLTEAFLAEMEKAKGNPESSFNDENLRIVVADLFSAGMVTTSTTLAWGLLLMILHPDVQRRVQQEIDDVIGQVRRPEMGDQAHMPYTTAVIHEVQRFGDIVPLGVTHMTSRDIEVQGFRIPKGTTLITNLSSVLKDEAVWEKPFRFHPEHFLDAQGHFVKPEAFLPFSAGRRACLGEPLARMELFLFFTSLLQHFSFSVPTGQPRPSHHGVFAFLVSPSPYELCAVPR

In the case of `CCN(CC)CCCC(C)Nc1c2ccc(Cl)cc2nc2ccc(OC)cc12` (centres undefined) [QUINACRINE], the IC50 result in data set [1], in data set [2], in data set [3], in data set [4], in data set [5] and in data set [6] was “Not Active” throughout. The IC50 result in data set [7] and in data set [8] was “Not Active” each time. The Ki entry in data set [2], in data set [3] and in data set [4] was “Not Active” throughout.

As to `C[C@]12C=CC(=O)C=C1CC[C@H]1[C@@H]3C[C@@H](O)[C@](O)(C(=O)CO)[C@@]3(C)C[C@H](O)[C@@]12F` [TRIAMCINOLONE], the IC50 result in data set [1], in data set [2], in data set [3], in data set [4], in data set [5] and in data set [6] was “Not Active” each time. Further, the IC50 result in data set [7] and in data set [8] was “Not Active” throughout. The Ki result in data set [2], in data set [3] and in data set [4] was “Not Active” throughout.

Regarding `CCN(C(C)=O)c1cccc(-c2ccnc3c(C#N)cnn23)c1` [ZALEPLON], the half-inhibitory concentration (IC50) result in data set [1], in data set [2], in data set [3], in data set [4], in data set [5] and in data set [6] was “Not Active” in each case. The IC50 entry in data set [7] and in data set [8] was “Not Active” throughout. Moreover, the Ki result in data set [2], in data set [3] and in data set [4] was “Not Active” in each case.

As to COBALTOUS CHLORIDE, the IC50 entry in data set [1], in data set [2], in data set [3], in data set [4], in data set [5] and in data set [6] was “Not Active” in each case. In addition, the IC50 entry in data set [7] and in data set [8] was “Not Active” each time. In addition, the Ki entry in data set [1], in data set [2], in data set [3], in data set [4], in data set [5] and in data set [6] was “Not Active” each time. Also, the Ki result in data set [7] and in data set [8] was “Not Active” in each case.

On to COLISTIN, for which the half-maximal inhibitory concentration (IC50) result in data set [1] was “Not Active”; in data set [2] it was “Not Active”; in data set [3] it was “Not Active”; in data set [4], “Not Active”; in data set [5] (read-out: IC50), 1500 nM; in data set [6] it was “Not Active”. Moreover, the IC50 result in data set [7] and in data set [8] was “Not Active” in each case. In addition, the Ki result in data set [1], in data set [2], in data set [3], in data set [4], in data set [6] and in data set [7] was “Not Active” in each case. In data set [8], the Ki result is on record as “Not Active”.
